Entries after “also recorded” stand apart in the source; their conditions may differ.
Assays:
primary chicken neurons = assay: Aβ1-42 induced lesions in primary chicken neurons, MTT viability assay; type: cell-based
Procedure: T:I 1: p-HTAA, Mw=529 g/mol, diluted in vehicle from stock solution in PBS+1.33% DMSO (10 mg/ml).
T:I 2: POWT-13, Mw=2782 g/mol, diluted in vehicle from stock solution in deionized water (40 mg/ml).
Cell source: Telencephalon neurons from 8-day-old chicken embryos (Lohman Brown hybrid)
Nutrition medium: DMEM with 4.5 g glucose/1, 5% Nu Serum, 0.01% gentamycin, 2 mM L-glutamine
Group size: n=6 for each T.I. and R.I. concentration per experiment
Lesion: 10 μM Aβ1-42 (pre-aggregated for 48 h) at DIV8 for 48 h
Evaluation of the effects: MTT on DIV 10
One-day-old fertilized eggs will be stored under appropriate conditions until start of breeding. On embryonic day 0 eggs will be transferred to the breeding incubator and under turning kept at 37.8° C. and 55% humidity until embryonic day eight. […]
Viability of cultures will be determined with the MTT assay using a plate-reader (570 nm) as described e.g. in SOP MET004. […] Since this reaction is catalysed in living cells only this assay can be used for the quantification of cell viability. […] To estimate optical density, a plate-reader (Anthos HT II or pquant) is used at wavelength 570 nm. […]
After 48 hours of incubation of T.I. and Aβ1-42 on cells (DIV10), viability of neurons will be analysed by the MTT assay.

Aβ deposits = assay: Long term in vivo effects on amyloid plaques in transgenic mice, cranial window, multiphoton spectroscopy; conditions: tail vein injection, 10 mg/kg
Text: This long lasting binding to the plaques is advantageous for a long term therapeutic effect of the inventive compounds.

Aβ peptide 1-42 = molecular target: T1, Aβ peptide 1-42 (Homo sapiens, UniProt P05067); assay: In vitro fibrillation of Aβ peptide 1-42 followed by TEM; type: biochemical; conditions: for fibrillation morphology by TEM: 20 μM Aβ 1-42, 37° C.
T1 construct: Aβ peptide 1-42 was dissolved in hexafluoroisopropanol
Procedure: Aβ peptide 1-42 was dissolved in hexafluoroisopropanol to a concentration of 1 mg/mL and further diluted to 20 μM in Tris-HCl 5 mM, 75 mM NaCl. The inventive compounds F and G were added in concentrations from 10 to 100 μM and the samples, including references without the inventive compounds, were incubated at 37° C. to initiate fibrillation. After Oh, 20 h and 66 h aliquots were withdrawn, deposited on formvar-carbon coated TEM grids and negatively stained using uranylacetate. A Phillips CM200 run at 200 kV was used to study the progress of fibrillation in the different samples. […] (at Oh). […] These aggregates were covering most of the TEM grid and no smaller fibril or oligomer like structures could be seen. After 66 h of incubation no major change in morphology compared to the 20 h samples could be seen, sheets with separate visible fibrils were found at high density on the grid, of a typical morphology illustrated in FIG. 3.

T1 sequence (P05067 672-713 limits assumed): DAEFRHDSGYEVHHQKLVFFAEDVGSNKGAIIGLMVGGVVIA

With `O=C(O)Cc1cc(-c2cccs2)sc1-c1ccc(-c2sc(-c3cccs3)cc2CC(=O)O)s1` [Compound G] the “viability of neurons (MTT)” value (primary chicken neurons; test item added to Aβ1-42 during aggregation, then on cells 48 h, FIG. 12) was “better viability compared to 10 μM Aβ1-42 alone”, the “viability of neurons (MTT)” value (primary chicken neurons; test item and pre-aggregated 10 μM Aβ1-42 applied on neurons simultaneously, 48 h, FIG. 11) was “better viability compared to 10 μM Aβ1-42 alone” and the “binding to Aβ deposits in living mouse brain one week after injection” value (Aβ deposits; one week after injection) was “binding of the inventive compounds to AP deposits could still be observed; also recorded: bound to Aβ deposits in living mouse brain one week after injection”. For the same compound, the “crossing of the blood brain barrier after intravenous injection” value (Aβ deposits; transgenic mice with AD-like pathology) was “readily cross the blood brain barrier”, the “fibrillation morphology by TEM” value (Aβ peptide 1-42; 10 μM compound, 20 h) was “no dense aggregates resembling those in the reference sample; also recorded: low density of oligomer like structures” and the “fibrillation morphology by TEM” value (Aβ peptide 1-42; 100 μM compound, 20 h) was “no dense aggregates resembling those in the reference sample; also recorded: low density of short branched fibrils with a very low contrast; also recorded: Short branched fibrils”. For the same compound, the “fibrillation morphology by TEM” value (Aβ peptide 1-42; 100 μM compound, 66 h) was “very few separate short proto-fibrils; also recorded: Short proto-fibrils” and the “effect on the fibrillation of Aβ peptide 1-42” value (Aβ peptide 1-42; overall conclusion, 20 h and 66 h) was “major effect”.
